Legend:
[1] = acute oral toxicity in rats, observed during 14 days; type: in vivo, Wistar EOPS rats; details: in vivo, rat, 2000 mg/kg
Protocol: (§1) The acute toxicity of the p-chlorophenyl ester of clofibric acid was determined using two species of animals (Swiss EOPS mice and Wistar EOPS rats) by oral administration, the product being administered in a gum preparation. The animals were observed during 14 days.

[2] = test system: serum and liver lipid levels; assay: hypolipidemic activity in rats on regimen rich in lipids, second set of experiments (Table II); type: in vivo, male Wistar EOPS rats
Protocol: (§2) The hypolipidemic activity was determined in rats subjected to a regimen rich in lipids over the course of 2 sets of experiments.
2. Male Wistar EOPS rats weighing in the neighborhood of 140 g receive a regimen rich in lipids during 21 days. Beginning with the eleventh day, the animals receive either a gum preparation containing the product to be tested or a preparation of 6% gum arabic alone, for 6 days out of 7. After the last feeding, and a subsequent 24 hour fast, the animals are sacrificed. A group of animals submitted to a normal regimen is used as a control. The percentage reductions of lipid levels are calculated using the following equation: [formula]

[3] = acute oral toxicity in mice, observed during 14 days; type: in vivo, Swiss EOPS mice; details: mouse, in vivo, po, 2000 mg/kg
Protocol: as §1

Swiss EOPS mice = assay: as above; type: in vivo; details: general statement
Protocol: as §1

Wistar EOPS rats = assay: acute oral toxicity in rats, observed during 14 days; type: in vivo; details: rat, 2000 mg/kg
Protocol: as §1

[4] = test system: serum and liver lipid levels; assay: hypolipidemic activity in rats on regimen rich in lipids, first set of experiments (Table I); type: in vivo, conventional male Wistar rats
Protocol: as §2
1. Conventional male Wistar rats weighing 130-150 g were maintained on a regimen rich in lipids for 21 days. At the same time, beginning with the fifteenth day of the regimen, they received a daily dose of either a gum preparation containing the product to be tested or a preparation of 6% gum arabic alone. After a fast of 24 hours, the animals were sacrificed, 22 days after the start of the regimen.

[5] = subchronic toxicity study, blood levels after one month oral administration (Table III); type: in vivo, male Wistar EOPS rats; set-up: bilirubin: unit not given here
Protocol: A subchronic toxicity study of the p-chlorophenyl ester of clofibric acid was carried out using the following protocol. The product was administered six days a week during the course of a month, by oral administration in a gum preparation, to male Wistar EOPS rats having an average initial weight of 200 g. After the last feeding, the animals were fasted. A blood sample is taken from the abdominal aorta under anesthesia, then the animals are sacrificed. […] The notation NS or S signifies whether the change induced by the product to be tested was statistically nonsignificant or significant.

[6] = 125 mg/kg/day, regimen rich in lipids
[7] = 200 mg/kg/day, regimen rich in lipids
[8] = 75 mg/kg/day, regimen rich in lipids
[9] = second dose group, dose not given

Compound: CC(C)(Oc1ccc(Cl)cc1)C(=O)O [clofibric acid, p-chlorophenoxyisobutyric acid, reference compound]
- mortality at 336 h [1]: 40%
- Wt. of liver / Wt of rat [2, 6]: 6.99 ± 0.75
- liver cholesterol level [2, 6]: 127.0 mg/g of liver
- liver total lipids level [2, 6]: 382.7 mg/g of liver
- liver triglycerides % reduction [2, 6]: 65%
- liver triglycerides level [2, 6]: 20.33 mg/g of liver
- serum cholesterol % reduction [2, 6]: 54%
- serum cholesterol concentration [2, 6]: 2.31 g/L
- serum total lipids % reduction [2, 6]: 46%
- serum total lipids concentration [2, 6]: 4.97 ± 1.41 g/L
- serum triglycerides concentration [2, 6]: 0.23 ± 0.04 g/L

Compound: CC(C)(Oc1ccc(Cl)cc1)C(=O)Oc1ccc(Cl)cc1 [p-chlorophenyl ester of clofibric acid, p-chlorophenyl 2-(p-chlorophenoxy)-2-methylpropionate]
- mortality at 336 h [3]: 10%
- toxicity (Swiss EOPS mice): very low toxicity
- mortality (Wistar EOPS rats): did not result in any mortality
- significance of reductions in blood and liver levels ([4]; 200 mg/kg/day, Table I): significant
- liver total lipids % reduction [4, 7]: 56%
- liver total lipids level [4, 7]: 60.82 ± 26.98 mg/g of liver
- serum cholesterol % reduction [4, 7]: 69%
- serum cholesterol concentration [4, 7]: 1.33 ± 0.33 g/L
- serum total lipids % reduction [4, 7]: 81%
- serum total lipids concentration [4, 7]: 3.87 ± 0.65 g/L
- hypolipidemic activity compared with clofibric acid and nicotinic acid ([4]; general statement, total serum lipid and serum cholesterol levels): significantly superior to that of both clofibric acid and nicotinic acid
- Wt. of liver / Wt of rat [2, 8]: 6.08 ± 0.31
- liver cholesterol level [2, 8]: 123.0 mg/g of liver
- liver total lipids level [2, 8]: 323.9 mg/g of liver
- liver triglycerides % reduction [2, 8]: 48%
- liver triglycerides level [2, 8]: 23.37 mg/g of liver
- serum cholesterol % reduction [2, 8]: 32%
- serum cholesterol concentration [2, 8]: 3.06 g/L
- serum total lipids % reduction [2, 8]: 34%
- serum total lipids concentration [2, 8]: 5.56 ± 2.83 g/L
- serum triglycerides concentration [2, 8]: 0.39 ± 0.06 g/L
- Wt. of liver / Wt of rat [2, 6]: 6.36 ± 0.31
- liver cholesterol level [2, 6]: 136.5 mg/g of liver
- liver total lipids level [2, 6]: 361.9 mg/g of liver
- liver triglycerides % reduction [2, 6]: 62%
- liver triglycerides level [2, 6]: 20.84 mg/g of liver
- serum cholesterol % reduction [2, 6]: 69%
- serum cholesterol concentration [2, 6]: 1.79 g/L
- serum total lipids % reduction [2, 6]: 74%
- serum total lipids concentration [2, 6]: 3.55 ± 0.77 g/L
- serum triglycerides concentration [2, 6]: 0.35 ± 0.06 g/L
- Wt. of liver / Wt of rat [2, 7]: 6.70 ± 0.50
- liver cholesterol level [2, 7]: 135.2 mg/g of liver
- liver total lipids level [2, 7]: 382.0 mg/g of liver
- liver triglycerides % reduction [2, 7]: 89%
- liver triglycerides level [2, 7]: 16.20 mg/g of liver
- serum cholesterol % reduction [2, 7]: 67%
- serum cholesterol concentration [2, 7]: 1.84 g/L
- serum total lipids % reduction [2, 7]: 69%
- serum total lipids concentration [2, 7]: 3.81 ± 0.97 g/L
- serum triglycerides concentration [2, 7]: 0.22 ± 0.06 g/L
- reduction of serum lipid and cholesterol levels compared with the acid ([2]; at equal dosage levels, vs clofibric acid): reduces serum lipid and cholesterol levels to a greater degree than the acid
- increase in liver weight compared with the acid ([2]; at equivalent dosage levels, vs clofibric acid): smaller than when the acid is used, and this difference is statistically significant
- weight of the animals' livers ([2]; regimen rich in lipids): increases
- alkaline phosphatase ([5]; 100 mg/kg/day): 25.0 ± 4.9 mU/ml
- bilirubin ([5]; 100 mg/kg/day): 3.68 ± 0.73
- cholesterol ([5]; 100 mg/kg/day): 0.47 ± 0.04 g/L
- glycemia ([5]; 100 mg/kg/day): 1.58 ± 0.15 g/L
- total lipids ([5]; 100 mg/kg/day): 2.92 ± 0.54 g/L
- triglycerides ([5]; 100 mg/kg/day): 0.83 ± 0.27 g/L
- urea ([5]; 100 mg/kg/day): 0.42 ± 0.07 g/L
- alkaline phosphatase ([5]; 500 mg/kg/day): 38.4 ± 9.9 mU/ml
- bilirubin ([5]; 500 mg/kg/day): 5.04 ± 1.09
- cholesterol ([5]; 500 mg/kg/day): 0.32 ± 0.06 g/L
- glycemia ([5]; 500 mg/kg/day): 1.41 ± 0.26 g/L
- total lipids ([5]; 500 mg/kg/day): 2.77 ± 0.42 g/L
- triglycerides ([5]; 500 mg/kg/day): 1.09 ± 0.33 g/L
- urea ([5]; 500 mg/kg/day): 0.40 ± 0.05 g/L
- alkaline phosphatase [5, 9]: 33.5± 7.8 mU/ml
- bilirubin [5, 9]: 4.82 ± 1.85
- cholesterol [5, 9]: 0.37 ± 0.07 g/L
- glycemia [5, 9]: 1.57 ± 0.15 g/L
- total lipids [5, 9]: 2.54 ± 0.35 g/L
- triglycerides [5, 9]: 0.74 ± 0.1 g/L
- urea [5, 9]: 0.34 ± 0.07 g/L

From patent US4179519A, “Method and composition for reducing serum lipid levels using p-chlorophenyl p-chlorophenoxyisobutyrate” (priority 1978, dated 1979)
